The results in this text go back to publication PMC13327620, “A Deep‐Red‐Absorbing Osmium(II) Complex as a Photosensitizer for Photodynamic Therapy Inducing Immunogenic Cell Death” (Angewandte Chemie (International Ed. in English), 2026).

The nature of series [1]: Photophysical properties (fluorescence and singlet oxygen quantum yield, lifetime). To be noted: in ethanol. The class given is physicochemical. Here is the method:
System Inc, Phoenixville, PA, USA). The excitation beam is separated by a SPEX dual […]
network monochromator (1200 lines / mm blazed at 330 nm). The fluorescence was […]
measured by the UV-Visible detector via the SPEX dual network emission […]
monochromator (1200 lines / mm blazed at 500 nm). Singlet oxygen production was […]
measured with an infrared detector InGaAs (800 - 1550 nm) via the dual network […]
emission monochromator SPEX (600 lines / mm blazed at 1 µm).
All spectra were measured using 4-sided quartz cells. The absorption values of the […]
references and samples at the excitation wavelength were adjusted to 0.2. All emission […]
spectra were normalized to the same absorbance for the purpose of comparison.
[Ru(bpy)3]2+ in acetonitrile was chosen as standard for both fluorescence and singlet […]
oxygen quantum yield determination. Fluorescence quantum yield of [ Ru(bpy)3]2+ i n […]
acetonitrile is evaluated at 0.077.[5] Singlet oxygen quantum yield of [ Ru(bpy)3]2+ i n […]
acetonitrile is evaluat ed at 0.77.[6]
Time-resolved experiments were performed using for excitation: a pulsed laser diode […]
emitting at 407 nm (LDH-P-C-400M, FWHM < 70 ps, 1 MHz) coupled with a driver […]
PDL 800- D (both PicoQuant GmbH, BERLIN, Germany) and for detection: an […]
avalanch e photodiode SPCM-AQR-15 (EG & G, VAUDREUIL, Can ada) coupled with […]
a 650 nm long- wav e p ass filter as det ection system. The acquisition was p erformed by […]
a PicoHarp 300 module with a 4 channels router PHR-800 (both PicoQuant GmbH, […]
BERLIN, Germany ). Th e fluores cence decays were recorded using the single photon […]
counting method. Data were collected up to 1000 counts accumulated in the maximum […]
channel and analyzed using Time Correlated Single Photon Counting (TCSPC) […]
software Fluofit (PicoQuant GmbH, BERLIN, Germany) based on iterative reconvolution using a Levensberg- M arquandt alg oritm, enabling the obtention of multi-exponential profiles (m ainly one or two exponenti als in our cases ). […]

The subject of the next series is MCA205 cells. Briefly: In vivo vaccination and rechallenge, MCA205 model. The arrangement: species or system C57BL/6 mice. The settings on record: vaccination with MCA205 cells pre-treated with 500 µM Cisplatin or 1400 µM Oxaliplatin (dark), 5.5 µM Ce6 or 3 µM Os2 (740 nm). The source says:
Next, we used these concentrations in the MCA205 vaccination and rechallenge model on C57BL/6 mice to test the in vivo ICD effect of Os2, following the same experimental procedure as that used for CT26‐luc cells in Figure 5A. […] Body weights remained stable across all groups throughout the study, further supporting the good in vivo biosafety of Os2.
The BALB/c female mice were randomly divided into 4 groups with each group containing 5 mice, which were named as Control group, Cisplatin group, Ce6 group and Os2 group. CT26-luc cells wer e treat ed in vitro with 600 µM Cisplatin in the dark, 6.5 µM Ce6 or 1.8 µM Os2 upon 740 nm LED light irradiation (60 min, 12.6 J cm-2) following the methods described above. Subsequently, treated CT26-luc cells (3×10^5 cells in 100 µ L sterile PBS) or 100 µ L sterile PB S were injected subcutaneously into the left flank of each mouse. One week later, mice were r echalleng ed by injection with untreated CT26- luc cells (1×10^6 cells in 100 µL sterile PBS). The mice were monitored by an in vivo imaging system (Biospace Lab, Photon Imager Optima) and the tumor volume was calculated with the following equation: tumor volume = width 2 × length × […]
In vivo vaccination study on MCA205 cells
The C57BL/6 mice were randomly divided into 5 groups with each group containing 10 mice, whi ch w ere nam ed as Control group, Cisplatin group, Oxaliplatin group, Ce6 group and Os2 group. M CA205 cells were treated in vitro with 500 µM Cisplatin o r 1400 µM Oxaliplatin in the dark, 5.5 µM Ce6 or 3 µM Os2 upon 740 nm LED light irradiation (60 min, 12.6 J cm-2) following the methods described above. Subsequently, treated MCA205 cells (3 ×10^5 cells in 100 µ L sterile PBS) or 100 µ L sterile PBS were injected subcutaneously into the left flank of each mouse. One week later, mice were rechallenged by injection with untreated MCA205 cells (1×10^6 cells in 100 µ L sterile PBS). The tumor volume was calculated with the following equation: tumor volume =

The next series deals with CT26‐luc cells. Briefly: Annexin V-FITC/propidium iodide (AV/PI) cell viability assay by flow cytometry. In kind it is cell-based, mouse. To be noted: 740 nm LED light (60 min, 12.6 J cm^−2). On the procedure: Following the gold standard assessment method, the Annexin V‐FITC/propidium iodide (AV/PI) dual staining assay was conducted to screen the suitable concentrations of each drug (Figure S25). In addition, to better monitor tumor growth in vivo, luciferase‐labelled tumor cells (CT26‐luc) were used for in vivo experiments by bioluminescence imaging. […] As the concentration of each drug was increased, the proportion of live cells decreased, while the percentage of dying cells (Q3, Annexin V^+/PI^−) and dead cells (Q2, Annexin V^+/PI^+ and Q1, Annexin V^−/PI^+) increased. The concentrations at which approximately 5% of the cells remained alive (IC95) were 600 µM for Cisplatin in the dark, 1.8 µM for Os2, and 6.5 µM for Ce6 upon 740 nm LED light irradiation (60 min, 12.6 J cm^−2). These concentrations were selected for the subsequent in vivo vaccination studies. […]
incubated for 24 h. Cells were then treat ed with the determined IC50 of complexes and irradiated or kept in the dark. Supernatants were collected 12 h post-t reatm ent, and the extracellular ATP content was measured with Adenosine 5′ -triphosphate (ATP) Bioluminescent Assay Kit (Sigma-Aldrich) according tomanufacturer ’s ins truction. […]
556419) and PI (BD Biosciences, Catalog no.51- 66211E). CT26- luc cells were analyzed by flow cytometry (Beckm an Coulter Life Sciences, CytoFLEX LX Flow Cytometer). […]
On the technique in general: Flow cytometry measures light scatter and fluorescence of single cells or particles in a stream.

Regarding `C=Cc1c(C)c2cc3nc(c(CC(=O)O)c4[nH]c(cc5nc(cc1[nH]2)C(C)=C5CC)c(C)c4C(=O)O)[C@@H](CCC(=O)O)[C@@H]3C` [Ce6, chlorin e6], in series [1], the Fluorescence lifetime was 4.7 ns, the Fluorescence quantum yield worked out at 0.20 and the “Singlet oxygen quantum yield” value is 0.65. Moreover, in the series with MCA205 cells, the Tumor growth result was “partial suppression”. For the same compound, in the series with CT26‐luc cells, the “Concentration at which approximately 5% of the cells remained alive (IC95)” value is listed as 6.5 µM.
